This note sets out measurements from patent publication US20150351390A1, “COMPOSITIONS AND METHODS FOR AUXIN-ANALOG CONJUGATION” (PIONEER HI-BRED INTERNATIONAL, INC., priority 2012, published 2015).

The subject of the assay is soybean seedlings. The assay can be described thus: Soybean seedling response to spot infiltrated auxins and conjugates. As to 1st trifoliate leaf curl: key: 0 = no phenotype; +/− = threshold. It counts as in vivo. As to conditions: for 1st trifoliate leaf curl: spot infiltration.

Turning to `O=C(O)COc1ccc(Cl)cc1Cl` [2,4-D, 2,4-dichlorophenoxyacetic acid], the “1st trifoliate leaf curl” value is 0 (100 μM), 0 (250 μM) and 0 (500 μM). For the same molecule, under “100, 250 & 500 μM, result in words”, the “Plant response phenotype, soybean” value is given as “increased auxinic response ranging from mild to extreme epinasty”.
